Drawing on US7576218B2, “4-phenylpiperdine-pyrazole CCR1 antagonists” (ChemoCentryx, Inc., priority 2005, dated 2009), this text covers IC50 for 29 molecules.

In general, IC50 refers to the midpoint of a concentration-inhibition curve.

A value given as a limit tells only on which side of the number the result lay.

In the assay the target is T1, CCR1 (Homo sapiens, UniProt P32246).
T1 sequence (P32246 1-355): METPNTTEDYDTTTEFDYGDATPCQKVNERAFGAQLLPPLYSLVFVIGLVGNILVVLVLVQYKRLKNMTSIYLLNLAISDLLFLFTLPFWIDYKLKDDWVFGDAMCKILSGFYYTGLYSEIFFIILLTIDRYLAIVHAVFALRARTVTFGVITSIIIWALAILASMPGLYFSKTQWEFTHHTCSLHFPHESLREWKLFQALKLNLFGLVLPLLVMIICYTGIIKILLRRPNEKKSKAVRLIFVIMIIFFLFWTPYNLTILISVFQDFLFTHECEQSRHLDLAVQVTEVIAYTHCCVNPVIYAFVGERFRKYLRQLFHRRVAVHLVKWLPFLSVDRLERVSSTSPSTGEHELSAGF
As to the kind of experiment: CCR1 chemotaxis assay or binding assay (inhibition of CCR1 ligand binding / CCR1 mediated migration).
Description: Cells were grown under 5% CO2/95% air, 100% humidity at 37° C. and subcultured twice weekly at 1:5 (cells were cultured at a density range of 2×10^5 to 2×10^6 cells/mL) and harvested at 1×10^6 cells/mL.
Monocytes were isolated from human buffy coats using the Miltenyi bead isolation system (Miltenyi, Auburn, Calif.). Briefly, following a Ficoll gradient separation to isolate peripheral blood mononuclear cells, cells were washed with PBS and the red blood cells lysed using standard procedures. Remaining cells were labeled with anti-CD14 antibodies coupled to magnetic beads (Miltenyi Biotech, Auburn, Calif.). Labeled cells were passed through AutoMACS (Miltenyi, Auburn, Calif.) and positive fraction collected.
CCR1 expressing cells were centrifuged and resuspended in assay buffer (20 mM HEPES pH 7.1, 140 mM NaCl, 1 mM CaCl2, 5 mM MgCl2, and with 0.2% bovine serum albumin) to a concentration of 5×10^6 cells/mL for THP-1 cells and 5×10^5 for monocytes. Binding assays were set up as follows. […] Reactions were aspirated onto GF/B glass filters pre-soaked in 0.3% polyethyleneimine (PEI) solution, on a vacuum cell harvester (Packard Instruments; Meriden, Conn.). Scintillation fluid (40 μl; Microscint 20, Packard Instruments) was added to each well, the plates were sealed and radioactivity measured in a Topcount scintillation counter (Packard Instruments). Control wells containing either diluent only (for total counts) or excess MIP-1α or MIP-1β (1 μg/mL, for non-specific binding) were used to calculate the percent of total inhibition for compound. The computer program Prism from GraphPad, Inc. (San Diego, Calif.) was used to calculate IC50 values.
Chemotaxis assays were performed using 5 ? m pore polycarbonate, polyvinylpyrrolidone-coated filters in 96-well chemotaxis chambers (Neuroprobe; Gaithersburg, Md.) using chemotaxis buffer (Hank's balanced salt solution (HBSS) and 1% FBS). CCR1 chemokine ligands (i.e., MIP-1α, CCL15/Leukotactin; R&D Systems; Minneapolis, Minn.) are use to evaluate compound mediated inhibition of CCR1 mediated migration. Other chemokines (i.e., SDF-1α; R&D Systems; Minneapolis, Minn.) are used as specificity controls. […] The chambers were incubated 1-2 hours at 37° C., and the number of cells in the lower chamber quantified either by direct cell counts in five high powered fields per well or by the CyQuant assay (Molecular Probes), a fluorescent dye method that measures nucleic acid content and microscopic observation.
Equal numbers of cells were added to each well in the plate. The cells were then incubated with radiolabeled MIP-1α. Unbound ligand was removed by washing the cells, and bound ligand was determined by quantifying radioactive counts. […] Percent inhibition was determined by the equation:
In the assay, the amount of compound was varied; while cell number and ligand concentration were held constant.
THP-1 myelomonocytic leukemia cells, which resemble monocytes, as wells as freshly isolated monocytes, were used as targets for chemoattraction by CCR1 chemokine ligands (i.e., MIP-1α, CCL15/leukotactin). […] In this assay, the amount of compound was varied; while cell number and chemokine agonist concentrations were held constant. After the chemotaxis chambers were incubated 1-2 hours at 37° C., the responding cells in the lower chamber were quantified by labeling with the CyQuant assay (Molecular Probes), a fluorescent dye method that measures nucleic acid content, and by measuring with a Spectrafluor Plus (Tecan).
In the case of `Cc1c(Cl)c(C(F)(F)F)nn1CC(=O)N1CCC(c2ccc(Cl)cc2)(c2nnn[nH]2)CC1` [Example 20, 2-(4-chloro-5-methyl-3-trifluoromethyl-pyrazol-1-yl)-1-[4-(4-chloro-phenyl)-4-(1H-tetrazol-5-yl)-piperidin-1-yl]-ethanone], the IC50 lay within 1000 to 25000 nM. On to `COC(=O)C1(c2ccc(Cl)cc2)CCN(C(=O)Cn2nc(C(F)(F)F)c(Cl)c2C)CC1` [Example 2, 1-[2-(4-chloro-5-methyl-3-trifluoromethyl-pyrazol-1-yl)-acetyl]-4-(4-chloro-phenyl)-piperidine-4-carboxylic acid methyl ester], for which the IC50 is less than 1000 nM. The figure for `Cc1c(Cl)c(C(F)(F)F)nn1CC(=O)N1CCC(C(=O)O)(c2ccc(Cl)cc2)CC1` [Example 25, 1-[2-(4-chloro-5-methyl-3-trifluoromethyl-pyrazol-1-yl)-acetyl]-4-(4-chloro-phenyl)-piperidine-4-carboxylic acid] is more than 25000 nM. `CCCC(=O)C1(c2ccccc2)CCN(C(=O)Cn2nc(C(F)(F)F)c(Cl)c2C)CC1` [Example 29, 1-(4-propylcarbonyl-4-phenyl-piperidin-1-yl)-2-(4-chloro-5-methyl-3-trifluoromethyl-pyrazol-1-yl)-ethanone]: the IC50 was less than 1000 nM. `Cc1c(Cl)c(C(F)(F)F)nn1CC(=O)N1CCC(CO)(c2ccc(Cl)cc2)CC1` [Example 23, 2-(4-chloro-5-methyl-3-trifluoromethyl-pyrazol-1-yl)-1-[4-(4-chloro-phenyl)-4-hydroxymethyl-piperidin-1-yl]-ethanone] came in with a half-inhibitory concentration (IC50) of 1000 to 25000 nM. With `Cc1c(Cl)c(C(F)(F)F)nn1CC(=O)N1CCC(C(=N)NO)(c2ccc(Cl)cc2)CC1` [Example 21, 1-[2-(4-chloro-5-methyl-3-trifluoromethyl-pyrazol-1-yl)-acetyl]-4-(4-chloro-phenyl)-N-hydroxy-piperidine-4-carboxamidine], the half-maximal inhibitory concentration (IC50) is less than 1000 nM. The figure for `Cc1c(Cl)c(C(F)(F)F)nn1CC(=O)N1CCC(O)(c2ccc(Cl)cc2)CC1` [Example 8, 2-(4-Chloro-5-methyl-3-trifluoromethyl-pyrazol-1-yl)-1-(4-hydroxy-4-(4-chloro)-phenyl-piperidin-1-yl)-ethanone] is less than 1000 nM; for `Cc1c(Cl)c(C(F)(F)F)nn1CC(=O)N1CCC(C#N)(c2ccccc2)CC1` [Example 12, 1-[2-(4-chloro-5-methyl-3-trifluoromethyl-pyrazol-1-yl)-acetyl]-4-phenyl-piperidine-4-carbonitrile] it is 1000 to 25000 nM. `Cc1c(Cl)c(C(F)(F)F)nn1CC(=O)N1CCC(C(=O)N2CCN(C)CC2)(c2ccc(Cl)cc2)CC1` [Example 18, 2-(4-chloro-5-methyl-3-trifluoromethyl-pyrazol-1-yl)-1-[4-(4-chloro-phenyl)-4-(4-methyl-piperazine-1-carbonyl)-piperidin-1-yl]-ethanone] yielded a concentration for half-maximal inhibition (IC50) of more than 25000 nM. As for `Cc1c(Cl)c(C(F)(F)F)nn1CC(=O)N1CCC(C(=O)N2CCNCC2)(c2ccc(Cl)cc2)CC1` [Example 17, 2-(4-chloro-5-methyl-3-trifluoromethyl-pyrazol-1-yl)-1-[4-(4-chloro-phenyl)-4-(piperazine-1-carbonyl)-piperidin-1-yl]-ethanone], the IC50 was more than 25000 nM. Regarding `CC(=O)C1(c2ccccc2)CCN(C(=O)Cn2nc(C(F)(F)F)c(Cl)c2C)CC1` [Example 27, 1-(4-Acetyl-4-phenyl-piperidin-1-yl)-2-(4-chloro-5-methyl-3-trifluoromethyl-pyrazol-1-yl)-ethanone], the 50% inhibitory concentration (IC50) lay within 1000 to 25000 nM. Take `CCC(=O)C1(c2ccccc2)CCN(C(=O)Cn2nc(C(F)(F)F)c(Cl)c2C)CC1` [Example 28, 1-(4-ethylcarbonyl-4-phenyl-piperidin-1-yl)-2-(4-chloro-5-methyl-3-trifluoromethyl-pyrazol-1-yl)-ethanone]: the half-maximal inhibitory concentration (IC50) was in the range of 1000 to 25000 nM. The figure for `Cc1c(Cl)c(-c2ncco2)nn1CC(=O)N1CCC(C#N)(c2ccc(Cl)cc2)CC1` [Example 3, 1-[2-(4-chloro-5-methyl-3-oxazol-2-yl-pyrazol-1-yl)-acetyl]-4-(4-chloro-phenyl)-piperidine-4-carbonitrile] is less than 1000 nM; for `Cc1c(Cl)c(C(F)(F)F)nn1CC(=O)N1CCC(O)(c2ccc(Br)cc2)CC1` [Example 10, 2-(4-Chloro-5-methyl-3-trifluoromethyl-pyrazol-1-yl)-1-(4-hydroxy-4-(4-bromo)-phenyl-piperidin-1-yl)-ethanone] it is 1000 to 25000 nM. On to `Cc1c(Cl)c(C(F)(F)F)nn1CC(=O)N1CCC(C(=O)N2CCOCC2)(c2ccc(Cl)cc2)CC1` [Example 19, 2-(4-chloro-5-methyl-3-trifluoromethyl-pyrazol-1-yl)-1-[4-(4-chloro-phenyl)-4-(4-morpholine-1-carbonyl)-piperidin-1-yl]-ethanone morpholine], for which the 50% inhibitory concentration (IC50) was in the range of 1000 to 25000 nM.

The molecule `COc1cc(C2(O)CCN(C(=O)Cn3nc(C(F)(F)F)c(Cl)c3C)CC2)ccc1Cl` [Example 4, 1-[4-(4-Chloro-3-methoxy-phenyl)-4-hydroxy-piperidin-1-yl]-2-(4-chloro-5-methyl-3-trifluoromethyl-pyrazol-1-yl)-ethanone] displayed an IC50 of less than 1000 nM.

With `Cc1c(Cl)c(C(F)(F)F)nn1CC(=O)N1CCC(O)(c2ccccc2)CC1` [Example 7, 2-(4-Chloro-5-methyl-3-trifluoromethyl-pyrazol-1-yl)-1-(4-hydroxy-4-phenyl-piperidin-1-yl)-ethanone], the IC50 fell in the range of 1000 to 25000 nM. Then `CCN(CC)C(=O)C1(c2ccc(Cl)cc2)CCN(C(=O)Cn2nc(C(F)(F)F)c(Cl)c2C)CC1` [Example 14, 1-[2-(4-chloro-5-methyl-3-trifluoromethyl-pyrazol-1-yl)-acetyl]-4-(4-chloro-phenyl)-piperidine-4-diethylamide], with 1000 to 25000 nM; and `CNC(=O)C1(c2ccc(Cl)cc2)CCN(C(=O)Cn2nc(C(F)(F)F)c(Cl)c2C)CC1` [Example 13, 1-[2-(4-chloro-5-methyl-3-trifluoromethyl-pyrazol-1-yl)-acetyl]-4-(4-chloro-phenyl)-piperidine-4-methylamide], with 1000 to 25000 nM. Then `COc1cc(C2(O)CCN(C(=O)COc3ccc(Cl)cc3)CC2)ccc1Cl` [Example 6, 1-[4-(4-Chloro-3-methoxy-phenyl)-4-hydroxy-piperidin-1-yl]-2-(4-chloro-phenoxy)-ethanone], with less than 1000 nM; and `Cc1c(Cl)c(C(F)(F)F)nn1CC(=O)N1CCC(C(=O)N2CCCC2)(c2ccc(Cl)cc2)CC1` [Example 15, 2-(4-chloro-5-methyl-3-trifluoromethyl-pyrazol-1-yl)-1-[4-(4-chloro-phenyl)-4-(pyrrolidine-1-carbonyl)-piperidin-1-yl]-ethanone], with 1000 to 25000 nM. Regarding `Cc1c(Cl)c(C(F)(F)F)nn1CC(=O)N1CCC(CN)(c2ccc(Cl)cc2)CC1` [Example 24, 1-[4-aminomethyl-4-(4-chloro-phenyl)-piperidin-1-yl]-2-(4-chloro-5-methyl-3-trifluoromethyl-pyrazol-1-yl)-ethanone], the concentration for half-maximal inhibition (IC50) was 1000 to 25000 nM. The figure for `Cc1c(Cl)c(C(F)(F)F)nn1CC(=O)N1CCC(O)(c2cccc(C(F)(F)F)c2)CC1` [Example 11, 2-(4-Chloro-5-methyl-3-trifluoromethyl-pyrazol-1-yl)-1-(4-hydroxy-4-(3-trifluoromethyl)-phenyl-piperidin-1-yl)-ethanone] is 1000 to 25000 nM. Consider `Cc1c(Cl)c(C(F)(F)F)nn1CC(=O)N1CCC(C(N)=O)(c2ccc(Cl)cc2)CC1` [Example 22, 1-[2-(4-chloro-5-methyl-3-trifluoromethyl-pyrazol-1-yl)-acetyl]-4-(4-chloro-phenyl)-piperidine-4-carboxylic acid amide], for which the IC50 is less than 1000 nM. The figure for `COc1cc(C2(O)CCN(C(=O)Cn3nc(-c4ncco4)c(Cl)c3C)CC2)ccc1Cl` [Example 5, 1-[4-(4-Chloro-3-methoxy-phenyl)-4-hydroxy-piperidin-1-yl]-2-(4-chloro-5-methyl-3-oxazol-2-yl-pyrazol-1-yl)-ethanone] is less than 1000 nM.

For `Cc1c(Cl)c(C(F)(F)F)nn1CC(=O)N1CCC(C(=O)N2CCCCC2)(c2ccc(Cl)cc2)CC1` [Example 16, 2-(4-chloro-5-methyl-3-trifluoromethyl-pyrazol-1-yl)-1-[4-(4-chloro-phenyl)-4-(piperidine-1-carbonyl)-piperidin-1-yl]-ethanone], the IC50 lay within 1000 to 25000 nM.

For the molecule `Cc1c(Cl)c(C(F)(F)F)nn1CC(=O)N1CCC(C#N)(c2ccc(Cl)cc2)CC1` [Example 1, 1-[2-(4-chloro-5-methyl-3-trifluoromethyl-pyrazol-1-yl)-acetyl]-4-(4-chloro-phenyl)-piperidine-4-carbonitrile], the IC50 was less than 1000 nM.

`COc1cc(C2(C#N)CCN(C(=O)Cn3nc(C(F)(F)F)c(Cl)c3C)CC2)ccc1Cl` [Example 26]: the 50% inhibitory concentration (IC50) is less than 1000 nM. On to `Cc1c(Cl)c(C(F)(F)F)nn1CC(=O)N1CCC(O)(c2ccc(Cl)c(C(F)(F)F)c2)CC1` [Example 9, 2-(4-Chloro-5-methyl-3-trifluoromethyl-pyrazol-1-yl)-1-(4-hydroxy-4-(4-chloro-3-trifluoromethyl)-phenyl-piperidin-1-yl)-ethanone], for which the half-inhibitory concentration (IC50) was 1000 to 25000 nM.
